In patent US10344287B2, “Recombinant microorganism producing quinolinic acid and method for producing quinolinic acid using same” (priority 2014, dated 2019):

What was measured:
Format in all cases: cell-based, E. coli
[1] = test system: W3110-ΔnadC with pPro-nadB_pCJ1-nadA and pCL1920; assay: Sensitivity to quinolinic acid, control strain; settings: 13 g/L quinolinic acid in medium
Procedure: (§1) First, to attenuate growth and development in the production strains, it was confirmed whether the addition of 13 g/L of quinolinic acid, in which KOH was titrated to a 7.0 pH, had influence or not. That is, a single colony of the strain producing quinolinic acid was inoculated in 25 mL of a LB+1% glucose broth (10 g/L of yeast extract, 5 g/L of NaCl, 10 g/L of tryptone, […] of kanamycin, and 10 g/L of glucose) by 1 platinum loop, and then, incubated with 250 rpm at 33° C. for 16 to 24 hours. Then, the OD600, the glucose consumption, and the residual quinolinic acid of the strain were measured.
(§2) To figure out whether the KefA membrane protein influenced the introduction of quinolinic acid, under the same method as Example 2-4(1), the kefA gene-deficient strain and the kefA gene-enhanced strain were subjected to evaluation of sensitivity to quinolinic acid.

[2] = test system: W3110-ΔnadCΔkefA with pPro-nadB_pCJ1-nadA and pCL1920; assay: Sensitivity to quinolinic acid, kefA-deficient strain
Procedure: as §1, §2

[3] = test system: MG1655-ΔnadC with pPro-nadB_pCJ1-nadA; assay: Sensitivity to quinolinic acid of strain producing quinolinic acid (growth in LB+1% glucose broth); settings: 33° C., 16 to 24 hours
Procedure: as §1

[4] = test system: W3110-ΔnadC with pPro-nadB_pCJ1-nadA; assay: as above
Procedure: as §1

[5] = test system: W3110-ΔnadC with pPro-nadB_pCJ1-nadA and pCL_PrhtB-kefA; assay: Sensitivity to quinolinic acid, kefA-enhanced strain
Procedure: as §1
The kefA gene obtained through PCR procedures was recovered through agarose gel elution, and then, was treated with restriction enzymes EcoRV and HindIII. Afterwards, the kefA gene was subjected to ligation into a pCL1920_pRhtB vector treated with restriction enzymes EcoRV and HindIII, leading to the expression of the kefA gene linked to a pRhtB promoter. The vector prepared therefrom was named a pCL_pRhtB-kefA vector.
as §2

[6] = 13 g/L quinolinic acid in medium

## O=C(O)c1cccnc1C(=O)O [quinolinic acid, 2,3-pyridine-dicarboxylic acid]
[1]
  Glucose consumption: 6.2 g/L
  OD600: 5.0
[2]; [6]
  Glucose consumption: 8.0 g/L
  OD600: 8.2
[2]; quinolinic acid additionally added to the medium, kefA-deficient strain versus control strain
  growth and development and glucose consumption speed compared to control strain: up to 110%
[3]; 13 g/L of quinolinic acid in medium (pH 7.0 with KOH)
  OD600: 4.5
[3]; 13 g/L of quinolinic acid in medium
  Glucose consumption: 6.0 g/L
[4]; 13 g/L of quinolinic acid in medium (pH 7.0 with KOH), 33° C., 16 to 24 hours
  OD600: 4.9
[4]; 13 g/L of quinolinic acid in medium, 33° C., 16 to 24 hours
  Glucose consumption: 6.0 g/L
[4]; quinolinic acid additionally added to the medium (13 g/L) versus 0 g/L, strains of Table 5
  growth and development and glucose-consumption speed, decreased to: 40%
[5]; [6]
  Glucose consumption: 3.2 g/L
  OD600: 2.1
[5]; quinolinic acid additionally added to the medium, kefA-enhanced strain versus control strain
  growth and development and glucose consumption speed compared to control strain: 50%
